In patent US6534494B1, “Process for the preparation of cefuroxime axetil in an amorphous form” (Ranbaxy Laboratories Limited, priority 1998, dated 2003):

Assays:
[1] = compared with the crystalline form; cited from earlier work
[2] = amorphous form, purity at least 95%; cited from earlier work
[3] = Particle size by scanning electron microscopy; format: physicochemical; details: crystalline feed material before milling
Description: 30 g of crystalline cefuroxime axetil S isomer with a particle size of 10-300 μm and having a bulk density of 0.391 g/cc, together with 3 g of sodium lauryl sulphate (SLS) were placed in the bowl of a Micros ‘0’ Super Fine Mill. Cold water was circulated through the outer jacket. The mill was operated with main shaft rotation set at 1000 rpm for 120 mins. The inner temperature was maintained in the range from 19-24° C. […] Samples of the material were examined by scanning electron microscopy and by X-ray diffraction crystallography.
Crystalline cefuroxime axetil S isomer with a particle size of 10-300 μm and having a bulk density of 0.391 g/cc, a mixture of crystalline cefuroxime axetil S isomer with crystalline cefuroxime axetil R isomer with a particle size of 5-50 μm, and having a bulk density of 0.221 g/cc. and crystalline cefuroxime axetil R,S racemic mixture were tested for conversion from the crystalline form to an amorphous form in different trials. The feed material consisted of cefuroxime axetil together with sodium lauryl sulphate or cefuroxime axetil together with sodium lauryl sulphate and colloidal silica (Aerosil 200). Samples of the material were withdrawn at various times for X-ray diffraction crystallography using a XRG 3000 diffractometer, and for scanning electron photomicrography. […] The percent crystallinity for the samples from Examples 6-9 was estimated to be less than 5% in all cases confirming the conversion of cefuroxime axetil to a predominantly (at least 95%) amorphous form.

[4] = Bulk density of crystalline feed material; format: physicochemical; details: crystalline feed material before milling
[5] = listed as Crystalline cefuroxime axetil S isomer

particle size [3]	particle size [3, 5]	bulk density [4] [g/cc]	bulk density [4, 5] [g/cc]	Compound	bioavailability [1]	chemical stability [2]
				CO/N=C(\C(=O)N[C@@H]1C(=O)N2C(C(=O)OC(C)OC(C)=O)=C(COC(N)=O)CS[C@H]12)c1ccco1 (some centres unmarked) [cefuroxime axetil in amorphous form, cefuroxime axetil]	higher bioavailability than the crystalline form	adequate chemical stability
10-300 μm	10-300 μm	0.391	0.391	CO/N=C(\C(=O)N[C@@H]1C(=O)N2C(C(=O)OC(C)OC(C)=O)=C(COC(N)=O)CS[C@H]12)c1ccco1 (stereo partly drawn) [crystalline cefuroxime axetil S isomer, cefuroxime axetil]		
5-50 μm		0.221		CO/N=C(\C(=O)N[C@@H]1C(=O)N2C(C(=O)OC(C)OC(C)=O)=C(COC(N)=O)CS[C@H]12)c1ccco1 (stereo partly drawn) [crystalline cefuroxime axetil R isomer, cefuroxime axetil]		
